These results are taken from patent US20120202209A1, “CELL IMAGING METHOD FOR VIEWING MICRORNA BIOGENESIS IN THE CELLS” (Centre National de la Recherche Scientifique - CNRS, priority 2009, published 2012).

For this test, the system named is Microprocessor (Drosha and DGCR8) at the C19MC locus. The experiment in a line: RNA FISH combined with immunofluorescence: recruitment of the Microprocessor on pri-miRNAs near the C19MC transcription site. It counts as cell-based, human. Conditions: cells treated with Actinomycin; data not shown. An excerpt:
To determine whether the Microprocessor can be visualized on the pri-miRNAs of the freshly synthesized C19MC locus, the inventors combined RNA FISH experiments with experiments for detection of proteins by immunofluorescence, according to the techniques familiar to a person skilled in the art. The inventors were thus able to detect the endogenous Drosha or DGCR8 proteins (FIG. 4). The inventors observed a co-localization of intense immunofluorescence signals for Drosha and
Recruitment depends on transcription and probably occurs via interaction with the RNAs, since there is no detection in cells treated with Actinomycin, in which C19MC-HG is not detected near the transcription site of C19MC (data not shown).

Consider Actinomycin, for which the “detection of C19MC-HG near the transcription site of C19MC” value is recorded as “not detected” and the “detection of Microprocessor recruitment on pri-miRNAs” value is recorded as “no detection”.
